Data reported in the supplement of paper PMC13380429.

Tests used:
Conditions in all cases: 72 h
[1] = system: Calu-3; experiment: relative viability EC50 (midpoint between 100% and the lowest measured viability); higher = less toxic
[2] = system: Vero E6; experiment: as above
[3] = system: U2OS; experiment: as above
[4] = system: HepG2; experiment: as above
[5] = system: Caco-2; experiment: as above
[6] = system: Calu-3; experiment: drug sensitivity score (DSS) for viability; higher = more toxic; extreme values may be limits of the assay
[7] = system: Vero E6; experiment: as above
[8] = system: U2OS; experiment: as above
[9] = system: HepG2; experiment: as above
[10] = system: Caco-2; experiment: as above
[11] = system: Calu-3; experiment: cell viability relative to DMSO; higher = less toxic
[12] = system: Vero E6; experiment: as above
[13] = system: U2OS; experiment: as above
[14] = system: HepG2; experiment: as above
[15] = system: Caco-2; experiment: as above

SMILES	relative viability EC50 [1] [µM]	relative viability EC50 [2] [µM]	relative viability EC50 [3] [µM]	relative viability EC50 [4] [µM]	relative viability EC50 [5] [µM]	drug sensitivity score [6]	drug sensitivity score [7]	drug sensitivity score [8]	drug sensitivity score [9]	drug sensitivity score [10]	cell viability ([11]; 1 nM) [%]	cell viability ([11]; 10 nM) [%]	cell viability ([11]; 100 nM) [%]	cell viability ([11]; 1000 nM) [%]	cell viability ([11]; 10000 nM) [%]	cell viability ([12]; 1 nM) [%]	cell viability ([12]; 10 nM) [%]	cell viability ([12]; 100 nM) [%]	cell viability ([12]; 1000 nM) [%]	cell viability ([12]; 10000 nM) [%]	cell viability ([13]; 1 nM) [%]	cell viability ([13]; 10 nM) [%]	cell viability ([13]; 100 nM) [%]	cell viability ([13]; 1000 nM) [%]	cell viability ([13]; 10000 nM) [%]	cell viability ([14]; 1 nM) [%]	cell viability ([14]; 10 nM) [%]	cell viability ([14]; 100 nM) [%]	cell viability ([14]; 1000 nM) [%]	cell viability ([14]; 10000 nM) [%]	cell viability ([15]; 1 nM) [%]	cell viability ([15]; 10 nM) [%]	cell viability ([15]; 100 nM) [%]	cell viability ([15]; 1000 nM) [%]	cell viability ([15]; 10000 nM) [%]
N#CN=C(NCCCCCCOc1ccc(Cl)cc1)Nc1ccncc1 [GMX1778]	0.0356	0.326	0.0363	0.0058	0.0332	28.8	17.6	29.7	36.6	29.3	104	102	7.1	4.8	3.9	98.3	99	101	1.7	1.2	102	110	0.1	-0.3	-0.5	109	26	19.5	16.3	8.4	104	102	3.2	3.5	3.2
CN1C(=O)C(Cc2c[nH]c3ccccc23)NC1=S (stereo not given) [necrostatin-1]	> 10	> 10	> 10	> 10	> 10	0	0	0	0	0	93.9	92	90.3	96.2	99	95.8	99	101	99.8	103	93.6	99.2	97.7	98.6	95.1	110	94.5	98.1	94.6	90.6	97.7	95.8	107	110	100
O=C(CCN1CCN(C(=O)OCc2cc(Cl)cc(Cl)c2)CC1)c1ccc2[nH]c(=O)oc2c1 [PF-8380]	> 10	> 10	> 10	> 10	> 10	0	0	0	0	0	97.5	101	94.5	99.5	113	106	110	104	103	92.7	98.5	101	97.9	95.6	101	99.6	96.3	93.4	105	97.3	94.8	101	91.2	98.1	94.9
CCN(CC)CCOc1ccc(Cc2ccccc2)cc1 [DPPE]	> 10	> 10	> 10	> 10	> 10	0	0	0	0	0.1	96	89.7	100	101	96.6	108	103	107	103	96	98.8	104	100	104	96.5	112	98.4	107	91.2	94.4	100	101	96.7	105	84.6
CCOC(=O)[C@H](CCc1ccccc1)N[C@@H](C)C(=O)N1C(=O)N(C)C[C@H]1C(=O)O [imidapril]	> 10	> 10	> 10	> 10	> 10	0	0	0	0	0	98.5	96.4	99.8	97.5	96.8	104	98.3	98.1	101	99.9	101	93.4	97.7	95.7	102	94.6	103	104	113	104	95.1	87.8	93.9	97.6	97.8
COc1ccccc1N1CCN(CCCCNC(=O)c2ccc(-c3ccc(C(C)=O)cc3)cc2)CC1	> 10	> 10	> 10	> 10	> 10	0	0	0	0.5	0	101	92.6	110	102	96.5	104	99.5	101	102	95.5	101	95.8	102	98.4	101	104	104	96.4	94.6	83.8	93.7	94.5	119	106	110
CCCc1nc(C(C)(C)O)c(C(=O)O)n1Cc1ccc(-c2ccccc2-c2nnn[nH]2)cc1 [olmesartan]	> 10	> 10	> 10	> 10	> 10	0	0	0	0	0	105	101	102	98	101	98.8	102	97.2	96.9	92.7	98.2	96.5	98.7	93.5	99.6	93.8	108	93.3	98.7	99.6	93	95.5	91.8	90.9	99.3
